Results reported in the NIST ThermoML archive (doi:10.1016/j.jct.2018.10.015).

Assay: xn = mol fraction of the nth substance listed
Details: 101.3 kPa, Liquid; for viscosity: Concentric cylinders viscometry; for mass density: Vibrating tube method

CCn1cc[n+](C)c1C.O=S(=O)([N-]S(=O)(=O)C(F)(F)F)C(F)(F)F + CCOC(=O)OCC
Details | mass density [kg/m3] | viscosity [mPa·s]
293.15 K, x1 = 0.1731 | 1150.1 | 3.168
293.15 K, x1 = 0.302 | 1242.2 | 6.382
293.15 K, x1 = 0.4028 | 1298.8 | 10.53
293.15 K, x1 = 0.4991 | 1343.7 | 16.14
293.15 K, x1 = 0.6093 | 1387 | 25.06
293.15 K, x1 = 0.7039 | 1418.8 | 35.42
293.15 K, x1 = 0.7951 | 1445.6 | 48.11
293.15 K, x1 = 0.8901 | 1470.6 | 64.72
293.15 K, x1 = 1 | 1495.8 | 89.88
298.15 K, x1 = 0.1731 | 1144.8 | 2.871
298.15 K, x1 = 0.302 | 1237.1 | 5.646
298.15 K, x1 = 0.4028 | 1293.7 | 9.149
298.15 K, x1 = 0.4991 | 1338.7 | 13.79
298.15 K, x1 = 0.6093 | 1382 | 21.02
298.15 K, x1 = 0.7039 | 1413.9 | 29.27
298.15 K, x1 = 0.7951 | 1440.8 | 39.24
298.15 K, x1 = 0.8901 | 1465.8 | 52.12
298.15 K, x1 = 1 | 1491 | 71.34
303.15 K, x1 = 0.1731 | 1139.5 | 2.615
303.15 K, x1 = 0.302 | 1232 | 5.032
303.15 K, x1 = 0.4028 | 1288.6 | 8.021
303.15 K, x1 = 0.4991 | 1333.7 | 11.9
303.15 K, x1 = 0.6093 | 1377.1 | 17.84
303.15 K, x1 = 0.7039 | 1409 | 24.52
303.15 K, x1 = 0.7951 | 1435.9 | 32.49
303.15 K, x1 = 0.8901 | 1461 | 42.65
303.15 K, x1 = 1 | 1486.3 | 57.64
308.15 K, x1 = 0.1731 | 1134.2 | 2.394
308.15 K, x1 = 0.302 | 1226.9 | 4.515
308.15 K, x1 = 0.4028 | 1283.6 | 7.089
308.15 K, x1 = 0.4991 | 1328.7 | 10.37
308.15 K, x1 = 0.6093 | 1372.2 | 15.31
308.15 K, x1 = 0.7039 | 1404.1 | 20.78
308.15 K, x1 = 0.7951 | 1431.1 | 27.23
308.15 K, x1 = 0.8901 | 1456.2 | 35.38
308.15 K, x1 = 1 | 1481.5 | 47.26
313.15 K, x1 = 0.1731 | 1128.9 | 2.201
313.15 K, x1 = 0.302 | 1221.7 | 4.076
313.15 K, x1 = 0.4028 | 1278.5 | 6.312
313.15 K, x1 = 0.4991 | 1323.7 | 9.113
313.15 K, x1 = 0.6093 | 1367.3 | 13.27
313.15 K, x1 = 0.7039 | 1399.3 | 17.81
313.15 K, x1 = 0.7951 | 1426.2 | 23.1
313.15 K, x1 = 0.8901 | 1451.4 | 29.72
313.15 K, x1 = 1 | 1476.7 | 39.24
318.15 K, x1 = 0.1731 | 1123.6 | 2.032
318.15 K, x1 = 0.302 | 1216.5 | 3.7
318.15 K, x1 = 0.4028 | 1273.5 | 5.657
318.15 K, x1 = 0.4991 | 1318.8 | 8.07
318.15 K, x1 = 0.6093 | 1362.4 | 11.6
318.15 K, x1 = 0.7039 | 1394.4 | 15.41
318.15 K, x1 = 0.7951 | 1421.4 | 19.8
318.15 K, x1 = 0.8901 | 1446.6 | 25.24
318.15 K, x1 = 1 | 1472 | 33
323.15 K, x1 = 0.1731 | 1118.3 | 1.882
323.15 K, x1 = 0.302 | 1211.3 | 3.375
323.15 K, x1 = 0.4028 | 1268.4 | 5.102
323.15 K, x1 = 0.4991 | 1313.8 | 7.196
323.15 K, x1 = 0.6093 | 1357.5 | 10.22
323.15 K, x1 = 0.7039 | 1389.6 | 13.45
323.15 K, x1 = 0.7951 | 1416.6 | 17.14
323.15 K, x1 = 0.8901 | 1441.8 | 21.66
323.15 K, x1 = 1 | 1467.2 | 28.05
328.15 K, x1 = 0.1731 | 1112.9 | 1.75
328.15 K, x1 = 0.302 | 1206.2 | 3.098
328.15 K, x1 = 0.4028 | 1263.4 | 4.633
328.15 K, x1 = 0.4991 | 1308.9 | 6.468
328.15 K, x1 = 0.6093 | 1352.5 | 9.095
328.15 K, x1 = 0.7039 | 1384.7 | 11.86
328.15 K, x1 = 0.7951 | 1411.8 | 15
328.15 K, x1 = 0.8901 | 1437 | 18.81
328.15 K, x1 = 1 | 1462.4 | 24.16

CCCCn1cc[n+](C)c1C.O=S(=O)([N-]S(=O)(=O)C(F)(F)F)C(F)(F)F + COC(=O)OC
Details | mass density [kg/m3] | viscosity [mPa·s]
293.15 K, x1 = 0.0976 | 1176 | 1.828
293.15 K, x1 = 0.1935 | 1242.1 | 3.518
293.15 K, x1 = 0.299 | 1291.6 | 6.864
293.15 K, x1 = 0.4011 | 1325.8 | 12.11
293.15 K, x1 = 0.4954 | 1350.1 | 19.5
293.15 K, x1 = 0.5974 | 1371 | 31.06
293.15 K, x1 = 0.6988 | 1387.8 | 47.37
293.15 K, x1 = 0.7987 | 1401.5 | 68.9
293.15 K, x1 = 0.9 | 1413.2 | 97.5
293.15 K, x1 = 1 | 1423.1 | 133.6
298.15 K, x1 = 0.0976 | 1170.1 | 1.686
298.15 K, x1 = 0.1935 | 1236.6 | 3.172
298.15 K, x1 = 0.299 | 1286.4 | 6.035
298.15 K, x1 = 0.4011 | 1320.8 | 10.38
298.15 K, x1 = 0.4954 | 1345.2 | 16.34
298.15 K, x1 = 0.5974 | 1366.2 | 25.45
298.15 K, x1 = 0.6988 | 1383 | 38.01
298.15 K, x1 = 0.7987 | 1396.8 | 54.23
298.15 K, x1 = 0.9 | 1408.5 | 75.54
298.15 K, x1 = 1 | 1418.5 | 101.82
303.15 K, x1 = 0.0976 | 1164.2 | 1.561
303.15 K, x1 = 0.1935 | 1231.1 | 2.876
303.15 K, x1 = 0.299 | 1281.2 | 5.352
303.15 K, x1 = 0.4011 | 1315.7 | 8.997
303.15 K, x1 = 0.4954 | 1340.2 | 13.88
303.15 K, x1 = 0.5974 | 1361.4 | 21.16
303.15 K, x1 = 0.6988 | 1378.3 | 31.01
303.15 K, x1 = 0.7987 | 1392.1 | 43.5
303.15 K, x1 = 0.9 | 1403.9 | 59.63
303.15 K, x1 = 1 | 1413.9 | 79.23
308.15 K, x1 = 0.0976 | 1158.2 | 1.445
308.15 K, x1 = 0.1935 | 1225.6 | 2.623
308.15 K, x1 = 0.299 | 1275.9 | 4.784
308.15 K, x1 = 0.4011 | 1310.7 | 7.873
308.15 K, x1 = 0.4954 | 1335.3 | 11.92
308.15 K, x1 = 0.5974 | 1356.5 | 17.83
308.15 K, x1 = 0.6988 | 1373.5 | 25.68
308.15 K, x1 = 0.7987 | 1387.4 | 35.46
308.15 K, x1 = 0.9 | 1399.2 | 47.91
308.15 K, x1 = 1 | 1409.3 | 62.74
313.15 K, x1 = 0.0976 | 1152.2 | 1.343
313.15 K, x1 = 0.1935 | 1220.1 | 2.405
313.15 K, x1 = 0.299 | 1270.7 | 4.306
313.15 K, x1 = 0.4011 | 1305.6 | 6.95
313.15 K, x1 = 0.4954 | 1330.4 | 10.34
313.15 K, x1 = 0.5974 | 1351.7 | 15.2
313.15 K, x1 = 0.6988 | 1368.8 | 21.55
313.15 K, x1 = 0.7987 | 1382.7 | 29.34
313.15 K, x1 = 0.9 | 1394.6 | 39.06
313.15 K, x1 = 1 | 1404.8 | 50.56
318.15 K, x1 = 0.0976 | 1146.2 | 1.25
318.15 K, x1 = 0.1935 | 1214.5 | 2.214
318.15 K, x1 = 0.299 | 1265.5 | 3.9
318.15 K, x1 = 0.4011 | 1300.6 | 6.184
318.15 K, x1 = 0.4954 | 1325.5 | 9.06
318.15 K, x1 = 0.5974 | 1346.9 | 13.1
318.15 K, x1 = 0.6988 | 1364 | 18.3
318.15 K, x1 = 0.7987 | 1378.1 | 24.58
318.15 K, x1 = 0.9 | 1390 | 32.32
318.15 K, x1 = 1 | 1400.2 | 41.38
323.15 K, x1 = 0.0976 | 1140.2 | 1.165
323.15 K, x1 = 0.1935 | 1209 | 2.046
323.15 K, x1 = 0.299 | 1260.3 | 3.553
323.15 K, x1 = 0.4011 | 1295.6 | 5.543
323.15 K, x1 = 0.4954 | 1320.6 | 8
323.15 K, x1 = 0.5974 | 1342.1 | 11.4
323.15 K, x1 = 0.6988 | 1359.3 | 15.71
323.15 K, x1 = 0.7987 | 1373.4 | 20.85
323.15 K, x1 = 0.9 | 1385.4 | 27.09
323.15 K, x1 = 1 | 1395.6 | 34.32
328.15 K, x1 = 0.0976 | 1133.9 | 1.091
328.15 K, x1 = 0.1935 | 1203.6 | 1.904
328.15 K, x1 = 0.299 | 1255.1 | 3.258
328.15 K, x1 = 0.4011 | 1290.5 | 5.017
328.15 K, x1 = 0.4954 | 1315.6 | 7.129
328.15 K, x1 = 0.5974 | 1337.2 | 10.03
328.15 K, x1 = 0.6988 | 1354.6 | 13.64
328.15 K, x1 = 0.7987 | 1368.7 | 17.91
328.15 K, x1 = 0.9 | 1380.8 | 23.04
328.15 K, x1 = 1 | 1391 | 28.91
